For one compound, Kd results are on record in publication PMC9023744, “The Cytochrome P450 OxyA from the Kistamicin Biosynthesis Cyclization Cascade is Highly Sensitive to Oxidative Damage” (Frontiers in Chemistry, 2022).

By Kd is commonly meant the equilibrium constant for the complex coming apart. Read a high Kd as weaker binding.

Assay [1] concerns the target T1, OxyCkis.
T1 construct: gene OxyC; recombinant, expressed in E. coli Arctic Express; Ni-NTA, anion exchange, size exclusion
Kind of assay: UV-visible difference spectroscopy titration, one-site model. In kind it is binding. To be noted: 50 mM Tris-HCl pH 8, 30°C; 2.5 µM enzyme.

In assay [2] the target is T2, OxyAkis ([Actinomadura] parvosata, UniProt A0A1V0AG67).
T2 construct: gene BKM31_54160; pET28a, His-tagged, expressed in E. coli Arctic Express; Ni-NTA, anion exchange, size exclusion
The assay is described as above. In kind it is binding.

T2 sequence (A0A1V0AG67 entry or part of it): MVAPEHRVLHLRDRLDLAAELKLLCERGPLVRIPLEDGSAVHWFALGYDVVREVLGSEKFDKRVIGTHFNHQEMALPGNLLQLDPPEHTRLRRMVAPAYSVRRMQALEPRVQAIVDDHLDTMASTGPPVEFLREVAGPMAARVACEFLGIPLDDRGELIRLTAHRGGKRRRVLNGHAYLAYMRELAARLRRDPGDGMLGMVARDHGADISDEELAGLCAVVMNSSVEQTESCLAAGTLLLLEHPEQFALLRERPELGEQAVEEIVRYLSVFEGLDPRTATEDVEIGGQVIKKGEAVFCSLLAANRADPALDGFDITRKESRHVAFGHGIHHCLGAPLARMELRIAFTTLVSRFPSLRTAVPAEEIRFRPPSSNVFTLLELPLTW

`c1c[nH]cn1` [imidazole]: the results for the Kd in assay [1] and in assay [2] were 84 µM and 120 µM, respectively.
